From PubChem BioAssay (NCI)
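Method: 48-hour compound exposure of cells in 96-well plates, five concentrations, linear interpolation of endpoints. GI50 marks 50% less growth. TGI denotes the concentration required for complete inhibition of growth.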

Assays:
Assay in all cases: DTP human tumour cell line panel, 48 h
HCC-2998 colon = test system: HCC-2998 colon
SNB-75 CNS = test system: SNB-75 CNS
OVCAR-4 ovarian = test system: OVCAR-4 ovarian
SK-MEL-5 melanoma = test system: SK-MEL-5 melanoma
DU-145 prostate = test system: DU-145 prostate
SF-539 CNS = test system: SF-539 CNS
SF-268 CNS = test system: SF-268 CNS
HCT-15 colon = test system: HCT-15 colon
NCI-H460 lung = test system: NCI-H460 lung
HS 578T breast = test system: HS 578T breast
OVCAR-5 ovarian = test system: OVCAR-5 ovarian
BT-549 breast = test system: BT-549 breast
CAKI-1 renal = test system: CAKI-1 renal
UACC-257 melanoma = test system: UACC-257 melanoma
ACHN renal = test system: ACHN renal
EKVX NSCLC = test system: EKVX NSCLC
SW-620 colon = test system: SW-620 colon
OVCAR-3 ovarian = test system: OVCAR-3 ovarian
KM12 colon = test system: KM12 colon
MDA-MB-435 = test system: MDA-MB-435
SF-295 CNS = test system: SF-295 CNS
786-0 renal = test system: 786-0 renal
UO-31 renal = test system: UO-31 renal
M14 melanoma = test system: M14 melanoma
RXF 393 renal = test system: RXF 393 renal
OVCAR-8 ovarian = test system: OVCAR-8 ovarian
A549 NSCLC = test system: A549 NSCLC
SR leukemia = test system: SR leukemia
IGROV1 ovarian = test system: IGROV1 ovarian
HOP-92 NSCLC = test system: HOP-92 NSCLC
UACC-62 melanoma = test system: UACC-62 melanoma
MOLT-4 leukemia = test system: MOLT-4 leukemia
U251 CNS = test system: U251 CNS
SNB-19 CNS = test system: SNB-19 CNS
NCI/ADR-RES ovarian = test system: NCI/ADR-RES ovarian
HT29 colon = test system: HT29 colon
LOX IMVI melanoma = test system: LOX IMVI melanoma
MDA-MB-231 breast = test system: MDA-MB-231 breast
COLO 205 colon = test system: COLO 205 colon
SN12C renal = test system: SN12C renal
NCI-H522 lung = test system: NCI-H522 lung
K-562 leukemia = test system: K-562 leukemia
SK-MEL-2 melanoma = test system: SK-MEL-2 melanoma
SK-OV-3 ovarian = test system: SK-OV-3 ovarian
MCF7 breast = test system: MCF7 breast
HL-60(TB) leukemia = test system: HL-60(TB) leukemia
PC-3 prostate = test system: PC-3 prostate
RPMI-8226 leukemia = test system: RPMI-8226 leukemia
HCT-116 colon = test system: HCT-116 colon
NCI-H23 lung = test system: NCI-H23 lung
TK-10 renal = test system: TK-10 renal
T-47D breast = test system: T-47D breast
CCRF-CEM leukemia = test system: CCRF-CEM leukemia
A498 renal = test system: A498 renal
NCI-H226 lung = test system: NCI-H226 lung
SK-MEL-28 melanoma = test system: SK-MEL-28 melanoma
HOP-62 NSCLC = test system: HOP-62 NSCLC

## COc1cnc2c(c1)C(=O)c1c-2n(CCCNC2=NCCS2)c(=O)c2cc([N+](=O)[O-])ccc12
HCC-2998 colon
  GI50: 1030 nM
  TGI: 2.45 µM
SNB-75 CNS
  GI50: 32.9 nM
  TGI: 1.81 µM
OVCAR-4 ovarian
  GI50: 482 nM
  TGI: 2580 nM
SK-MEL-5 melanoma
  GI50: 0.0284 µM
  TGI: 0.157 µM
DU-145 prostate
  GI50: < 10 nM
  TGI: 1380 nM
SF-539 CNS
  GI50: 35.9 nM
  TGI: 1.05 µM
SF-268 CNS
  GI50: < 0.01 µM
  TGI: 1.88 µM
HCT-15 colon
  GI50: 1170 nM
  TGI: 2.66 µM
NCI-H460 lung
  GI50: < 0.01 µM
  TGI: 1.24 µM
HS 578T breast
  GI50: 1820 nM
  TGI: 4.54 µM
OVCAR-5 ovarian
  GI50: 1040 nM
  TGI: 3.59 µM
BT-549 breast
  GI50: 54.4 nM
  TGI: 1920 nM
CAKI-1 renal
  GI50: < 0.01 µM
  TGI: 1470 nM
UACC-257 melanoma
  GI50: 575 nM
  TGI: 3.28 µM
ACHN renal
  GI50: < 0.01 µM
  TGI: 1.15 µM
EKVX NSCLC
  GI50: 1010 nM
  TGI: 2820 nM
SW-620 colon
  GI50: 13.9 nM
  TGI: 1.84 µM
OVCAR-3 ovarian
  GI50: 137 nM
  TGI: 1.81 µM
KM12 colon
  GI50: 1110 nM
  TGI: 3.13 µM
MDA-MB-435
  GI50: 478 nM
  TGI: 2290 nM
SF-295 CNS
  GI50: 13.2 nM
  TGI: 0.265 µM
786-0 renal
  GI50: 23.5 nM
  TGI: 0.0925 µM
UO-31 renal
  GI50: < 0.01 µM
  TGI: 1.19 µM
M14 melanoma
  GI50: < 0.01 µM
  TGI: 1.16 µM

## NC1CCN(Cc2ccccc2)CC1
HCC-2998 colon
  GI50: > 100000 nM
  TGI: > 100 µM
RXF 393 renal
  GI50: 8.22 µM
  TGI: > 100 µM
SNB-75 CNS
  GI50: > 100000 nM
  TGI: > 100 µM
OVCAR-8 ovarian
  GI50: > 100 µM
  TGI: > 100 µM
A549 NSCLC
  GI50: > 100 µM
  TGI: > 100 µM
SR leukemia
  GI50: > 100 µM
  TGI: > 100 µM
OVCAR-4 ovarian
  GI50: > 100000 nM
  TGI: > 100000 nM
SK-MEL-5 melanoma
  GI50: 24.2 µM
  TGI: > 100 µM
IGROV1 ovarian
  GI50: 94.6 µM
  TGI: > 100 µM
HOP-92 NSCLC
  GI50: > 100 µM
  TGI: > 100 µM
UACC-62 melanoma
  GI50: > 100 µM
  TGI: > 100 µM
MOLT-4 leukemia
  GI50: > 100 µM
  TGI: > 100 µM
SF-539 CNS
  GI50: 2270 nM
  TGI: 6.21 µM
U251 CNS
  GI50: > 100 µM
  TGI: > 100 µM
SF-268 CNS
  GI50: > 100 µM
  TGI: > 100 µM
SNB-19 CNS
  GI50: > 100 µM
  TGI: > 100 µM
HCT-15 colon
  GI50: > 100000 nM
  TGI: > 100 µM
NCI/ADR-RES ovarian
  GI50: > 100 µM
  TGI: > 100 µM
NCI-H460 lung
  GI50: > 100 µM
  TGI: > 100 µM
OVCAR-5 ovarian
  GI50: > 100000 nM
  TGI: > 100 µM
HT29 colon
  GI50: > 100 µM
  TGI: > 100 µM
LOX IMVI melanoma
  GI50: > 100 µM
  TGI: > 100 µM
MDA-MB-231 breast
  GI50: > 100 µM
  TGI: > 100 µM
CAKI-1 renal
  GI50: > 100 µM
  TGI: > 100000 nM
COLO 205 colon
  GI50: > 100 µM
  TGI: > 100 µM
SN12C renal
  GI50: > 100 µM
  TGI: > 100 µM
UACC-257 melanoma
  GI50: > 100000 nM
  TGI: > 100 µM
ACHN renal
  GI50: > 100 µM
  TGI: > 100 µM
NCI-H522 lung
  GI50: > 100 µM
  TGI: > 100 µM
K-562 leukemia
  GI50: > 100 µM
  TGI: > 100 µM
SK-MEL-2 melanoma
  GI50: > 100 µM
  TGI: > 100 µM
SK-OV-3 ovarian
  GI50: > 100 µM
  TGI: > 100 µM
MCF7 breast
  GI50: > 100 µM
  TGI: > 100 µM
HL-60(TB) leukemia
  GI50: > 100 µM
  TGI: > 100 µM
PC-3 prostate
  GI50: > 100 µM
  TGI: > 100 µM
SW-620 colon
  GI50: > 100000 nM
  TGI: > 100 µM
OVCAR-3 ovarian
  GI50: > 100000 nM
  TGI: > 100 µM
KM12 colon
  GI50: > 100000 nM
  TGI: > 100 µM
MDA-MB-435
  GI50: > 100000 nM
  TGI: > 100000 nM
RPMI-8226 leukemia
  GI50: > 100 µM
  TGI: > 100 µM
HCT-116 colon
  GI50: > 100 µM
  TGI: > 100 µM
NCI-H23 lung
  GI50: > 100 µM
  TGI: > 100 µM
SF-295 CNS
  GI50: > 100000 nM
  TGI: > 100 µM
786-0 renal
  GI50: > 100000 nM
  TGI: > 100 µM
UO-31 renal
  GI50: > 100 µM
  TGI: > 100 µM
TK-10 renal
  GI50: > 100 µM
  TGI: > 100 µM
T-47D breast
  GI50: > 100 µM
  TGI: > 100 µM
CCRF-CEM leukemia
  GI50: > 100 µM
  TGI: > 100 µM
M14 melanoma
  GI50: > 100 µM
  TGI: > 100 µM

## CCOc1cc(/C=C2/C(C)=NN(c3cccc(Cl)c3)/C2=N/c2nc3ccccc3s2)ccc1O
HCC-2998 colon
  TGI: 35.6 µM
RXF 393 renal
  TGI: > 100 µM
SNB-75 CNS
  TGI: > 100 µM
OVCAR-8 ovarian
  TGI: > 100 µM
SR leukemia
  TGI: 81.1 µM
A498 renal
  TGI: 56.9 µM
SK-MEL-5 melanoma
  TGI: 40.2 µM
DU-145 prostate
  TGI: > 100000 nM
IGROV1 ovarian
  TGI: > 100 µM
HOP-92 NSCLC
  TGI: 67.8 µM
MOLT-4 leukemia
  TGI: > 100 µM
SF-539 CNS
  TGI: 57 µM
U251 CNS
  TGI: 43 µM
SF-268 CNS
  TGI: 86.1 µM
NCI-H226 lung
  TGI: 68 µM
HCT-15 colon
  TGI: 69.8 µM
NCI/ADR-RES ovarian
  TGI: 55.9 µM
NCI-H460 lung
  TGI: 64 µM
HS 578T breast
  TGI: 68.6 µM
OVCAR-5 ovarian
  TGI: > 100 µM
HT29 colon
  TGI: > 100 µM
LOX IMVI melanoma
  TGI: > 100 µM
MDA-MB-231 breast
  TGI: 59.6 µM
UACC-257 melanoma
  TGI: 61.6 µM
ACHN renal
  TGI: 63.6 µM
NCI-H522 lung
  TGI: 52.7 µM
K-562 leukemia
  TGI: > 100 µM
EKVX NSCLC
  TGI: > 100000 nM
SK-MEL-2 melanoma
  TGI: 41.4 µM
SK-OV-3 ovarian
  TGI: 70.5 µM
SK-MEL-28 melanoma
  TGI: > 100 µM
MCF7 breast
  TGI: 81.8 µM
HL-60(TB) leukemia
  TGI: 12.4 µM
PC-3 prostate
  TGI: 43.5 µM
SW-620 colon
  TGI: > 100 µM
OVCAR-3 ovarian
  TGI: 50.8 µM
RPMI-8226 leukemia
  TGI: > 100 µM
HCT-116 colon
  TGI: 67.5 µM
NCI-H23 lung
  TGI: 50.7 µM
SF-295 CNS
  TGI: 93.8 µM
786-0 renal
  TGI: > 100 µM
UO-31 renal
  TGI: 52.8 µM
TK-10 renal
  TGI: > 100 µM
HOP-62 NSCLC
  TGI: > 100 µM
T-47D breast
  TGI: > 100 µM
CCRF-CEM leukemia
  TGI: > 100 µM
M14 melanoma
  TGI: 75.5 µM
